Measured values: ChEMBL document CHEMBL1139006, “Synthesis and in vitro antibiotic activity of 16-membered 9-O-arylalkyloxime macrolides” (2006)
≈ marks a conversion by molar mass, not a printed value.

What was measured:
Type in all cases: functional
[1] = test system: Streptococcus pneumoniae; experiment: Antibacterial activity against macrolide resistant Streptococcus pneumoniae ATCC 700676
[2] = test system: Streptococcus pneumoniae; experiment: Antibacterial activity against macrolide resistant Streptococcus pneumoniae ATCC 700905
[3] = test system: Streptococcus pneumoniae; experiment: Antibacterial activity against Streptococcus pneumoniae ATCC 6301
[4] = test system: Haemophilus influenzae; experiment: Antibacterial activity against Haemophilus influenzae ATCC 9006
[5] = test system: Haemophilus influenzae; experiment: Antibacterial activity against Haemophilus influenzae EH003
[6] = test system: Streptococcus pneumoniae; experiment: Antibacterial activity against macrolide resistant Streptococcus pneumoniae ATCC 700906
[7] = test system: Streptococcus pneumoniae; experiment: Antibacterial activity against Streptococcus pneumoniae ATCC 49619
[8] = test system: Haemophilus influenzae; experiment: Antibacterial activity against Haemophilus influenzae EH002
[9] = test system: Streptococcus pneumoniae; experiment: Antibacterial activity against Streptococcus pneumoniae ATCC 700671
[10] = test system: Haemophilus influenzae; experiment: Antibacterial activity against Haemophilus influenzae EH001
[11] = test system: Haemophilus influenzae; experiment: Antibacterial activity against Haemophilus influenzae ATCC 49766
[12] = test system: Streptococcus pneumoniae; experiment: Antibacterial activity against macrolide resistant Streptococcus pneumoniae ATCC 700677
[13] = test system: Staphylococcus epidermidis; experiment: Antibacterial activity against Staphylococcus epidermidis ATCC 12228
[14] = test system: Staphylococcus aureus; experiment: Antibacterial activity against Staphylococcus aureus ATCC 6538p
[15] = test system: Enterococcus faecalis; experiment: Antibacterial activity against Enterococcus faecalis ATCC 51575
[16] = test system: Staphylococcus aureus; experiment: Antibacterial activity against Staphylococcus aureus ATCC 29213
[17] = test system: Staphylococcus aureus; experiment: Antibacterial activity against macrolide resistant Staphylococcus aureus ATCC BAA-39
[18] = test system: Staphylococcus aureus; experiment: Antibacterial activity against macrolide resistant Staphylococcus aureus ATCC BAA-44
[19] = test system: Staphylococcus aureus; experiment: Antibacterial activity against macrolide resistant Staphylococcus aureus ATCC 33591
[20] = test system: Staphylococcus aureus; experiment: Antibacterial activity against macrolide resistant Staphylococcus aureus ATCC 141541

Structure (SMILES) | MIC [1] [µg/mL] | MIC [2] [µg/mL] | MIC [3] [µg/mL] | MIC [4] [µg/mL] | MIC [5] [µg/mL] | MIC [6] [µg/mL] | MIC [7] [µg/mL] | MIC [8] [µg/mL] | MIC [9] [µg/mL] | MIC [10] [µg/mL] | MIC [11] [µg/mL] | MIC [12] [µg/mL] | MIC [13] [µg/mL] | MIC [14] [µg/mL] | MIC [15] [µg/mL] | MIC [16] [µg/mL] | MIC [17] [µg/mL] | MIC [18] [µg/mL] | MIC [19] [µg/mL] | MIC [20] [µg/mL]
CC[C@H]1OC(=O)C[C@@H](O)[C@H](C)[C@@H](O[C@@H]2O[C@H](C)[C@@H](O)[C@H](N(C)C)[C@H]2O)[C@@H](C=O)C[C@@H](C)C(=N\OCCCc2ccc3ncccc3c2)/C=C/C(C)=C/C1CO (stereo partly drawn) | 0.025 (≈ 0.0326 µM) | 0.025 (≈ 0.0326 µM) | 0.025 (≈ 0.0326 µM) | 1.56 (≈ 2.03 µM) | 3.12 (≈ 4.06 µM) | > 12.5 | 0.025 (≈ 0.0326 µM) | 6.25 (≈ 8.14 µM) | 0.098 (≈ 0.128 µM) | 3.12 (≈ 4.06 µM) | 3.12 (≈ 4.06 µM) | > 12.5 | – | – | – | – | – | – | – | –
CC[C@H]1OC(=O)[C@H](C)[C@@H](O[C@H]2C[C@@](C)(OC)[C@@H](O)[C@H](C)O2)[C@H](C)[C@@H](O[C@@H]2O[C@H](C)C[C@H](N(C)C)[C@H]2O)[C@](C)(O)C[C@@H](C)C(=O)[C@H](C)[C@@H](O)[C@]1(C)O [ERYTHROMYCIN] | 6.25 (≈ 8.52 µM) | 3.12 (≈ 4.25 µM) | 0.025 (≈ 0.0341 µM) | 1.56 (≈ 2.13 µM) | 3.12 (≈ 4.25 µM) | > 12.5 | 0.049 (≈ 0.0668 µM) | 6.25 (≈ 8.52 µM) | 0.049 (≈ 0.0668 µM) | 3.12 (≈ 4.25 µM) | 6.25 (≈ 8.52 µM) | 6.25 (≈ 8.52 µM) | 0.2 (≈ 0.273 µM) | 0.098 (≈ 0.134 µM) | > 12.5 | 0.2 (≈ 0.273 µM) | > 12.5 | > 12.5 | > 12.5 | –
CC[C@H]1OC(=O)C[C@@H](O)[C@H](C)[C@@H](O[C@@H]2O[C@H](C)[C@@H](O)[C@H](N(C)C)[C@H]2O)[C@@H](CC=O)C[C@@H](C)C(=N\OCCCOc2ccc3ncccc3c2)/C=C/C(C)=C/C1CO (stereo partly drawn) | 0.025 (≈ 0.0313 µM) | 0.025 (≈ 0.0313 µM) | 0.025 (≈ 0.0313 µM) | 6.25 (≈ 7.83 µM) | – | > 12.5 | 0.01 (≈ 0.0125 µM) | – | 0.025 (≈ 0.0313 µM) | – | 6.25 (≈ 7.83 µM) | 0.2 (≈ 0.251 µM) | 0.098 (≈ 0.123 µM) | 0.025 (≈ 0.0313 µM) | > 12.5 | 0.098 (≈ 0.123 µM) | > 12.5 | > 12.5 | > 12.5 | 0.2 (≈ 0.251 µM)
CC[C@H]1OC(=O)C[C@@H](O)[C@H](C)[C@@H](O[C@@H]2O[C@H](C)[C@@H](O)[C@H](N(C)C)[C@H]2O)[C@@H](CC=O)C[C@@H](C)C(=O)/C=C/C(C)=C/C1CO (stereo partly drawn) | 0.78 (≈ 1.3 µM) | 0.78 (≈ 1.3 µM) | 0.025 (≈ 0.0418 µM) | 1.56 (≈ 2.61 µM) | 1.56 (≈ 2.61 µM) | > 12.5 | 0.098 (≈ 0.164 µM) | 6.25 (≈ 10.5 µM) | 0.049 (≈ 0.082 µM) | 3.12 (≈ 5.22 µM) | 1.56 (≈ 2.61 µM) | 6.25 (≈ 10.5 µM) | 0.39 (≈ 0.652 µM) | 0.39 (≈ 0.652 µM) | > 12.5 | 0.78 (≈ 1.3 µM) | > 12.5 | > 12.5 | > 12.5 | 1.56 (≈ 2.61 µM)
CC[C@H]1OC(=O)C[C@@H](O)[C@H](C)[C@@H](O[C@@H]2O[C@H](C)[C@@H](O)[C@H](N(C)C)[C@H]2O)[C@@H](CC=O)C[C@@H](C)C(=N/OCC(=O)N2CCN(c3ccccc3)CC2)/C=C/C(C)=C/C1CO (stereo partly drawn) | 0.39 (≈ 0.479 µM) | 0.2 (≈ 0.245 µM) | 0.025 (≈ 0.0307 µM) | – | – | > 12.5 | 0.01 (≈ 0.0123 µM) | – | 0.025 (≈ 0.0307 µM) | – | – | 6.25 (≈ 7.67 µM) | 0.2 (≈ 0.245 µM) | 0.78 (≈ 0.957 µM) | > 12.5 | 1.56 (≈ 1.91 µM) | > 12.5 | > 12.5 | > 12.5 | 1.56 (≈ 1.91 µM)
CC[C@H]1OC(=O)C[C@@H](O)[C@H](C)[C@@H](O[C@@H]2O[C@H](C)[C@@H](O)[C@H](N(C)C)[C@@H]2O)[C@@H](CCN2CC(C)CC(C)C2)C[C@@H](C)C(=N\OCCOc2ccccc2)/C=C/C(C)=C/C1CO (stereo partly drawn) | 0.78 (≈ 0.94 µM) | 0.39 (≈ 0.47 µM) | 0.2 (≈ 0.241 µM) | – | – | > 12.5 | 0.39 (≈ 0.47 µM) | – | 0.39 (≈ 0.47 µM) | – | – | > 12.5 | 6.25 (≈ 7.53 µM) | 0.78 (≈ 0.94 µM) | > 12.5 | 6.25 (≈ 7.53 µM) | > 12.5 | > 12.5 | > 12.5 | 6.25 (≈ 7.53 µM)
